Consider 36 compounds from BindingDB's records for doi:10.7270/Q2TX3CSC (Vanderbilt Screening Center for GPCRs, Ion Channels and …, 2009).

For this experiment, the target named is T1, Solute carrier family 12 member 5 (Homo sapiens, UniProt Q9H2X9).
T1 sequence (Q9H2X9 whole entry): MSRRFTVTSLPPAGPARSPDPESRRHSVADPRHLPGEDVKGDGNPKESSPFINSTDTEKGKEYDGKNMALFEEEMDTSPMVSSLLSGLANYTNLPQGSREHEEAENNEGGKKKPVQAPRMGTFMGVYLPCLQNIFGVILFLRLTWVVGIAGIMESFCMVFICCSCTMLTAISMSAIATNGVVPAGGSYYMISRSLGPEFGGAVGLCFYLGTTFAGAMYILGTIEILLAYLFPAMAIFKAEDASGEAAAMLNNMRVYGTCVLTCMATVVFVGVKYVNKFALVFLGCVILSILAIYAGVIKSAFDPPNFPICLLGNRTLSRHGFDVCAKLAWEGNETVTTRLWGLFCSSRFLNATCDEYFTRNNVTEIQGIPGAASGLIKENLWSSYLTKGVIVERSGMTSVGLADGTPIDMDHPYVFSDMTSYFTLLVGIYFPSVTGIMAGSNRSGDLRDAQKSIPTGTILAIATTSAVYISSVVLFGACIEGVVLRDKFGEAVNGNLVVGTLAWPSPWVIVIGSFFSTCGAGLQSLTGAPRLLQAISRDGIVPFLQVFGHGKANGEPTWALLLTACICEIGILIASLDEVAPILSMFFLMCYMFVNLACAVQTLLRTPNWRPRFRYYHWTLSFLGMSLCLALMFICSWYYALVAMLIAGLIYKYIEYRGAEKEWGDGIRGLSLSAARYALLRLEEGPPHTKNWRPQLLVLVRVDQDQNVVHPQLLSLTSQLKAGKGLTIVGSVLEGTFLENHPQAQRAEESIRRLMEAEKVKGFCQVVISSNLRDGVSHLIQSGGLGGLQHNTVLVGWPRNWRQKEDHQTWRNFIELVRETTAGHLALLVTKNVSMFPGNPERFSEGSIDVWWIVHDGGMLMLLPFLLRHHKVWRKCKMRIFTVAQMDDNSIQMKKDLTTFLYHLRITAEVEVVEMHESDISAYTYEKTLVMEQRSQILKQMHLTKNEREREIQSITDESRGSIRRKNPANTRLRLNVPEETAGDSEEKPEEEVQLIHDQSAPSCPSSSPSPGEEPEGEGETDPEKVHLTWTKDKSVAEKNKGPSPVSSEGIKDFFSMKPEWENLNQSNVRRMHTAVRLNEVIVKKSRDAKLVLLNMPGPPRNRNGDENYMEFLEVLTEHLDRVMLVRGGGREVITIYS
The experiment is described as follows: KCC2 modulator potency by thallium flux, dose response, cell-based, HEK293 KCC2, FluoZin-2 fluorescence (AID 1736).

[1] abbreviates: inactive by the depositor's call.

SMILES strings stand for the structures. Non-standard residues stand in square brackets, D forms with d. Residues, ends and D or L forms follow the SMILES beside them. ξ: configuration not given here. *: point of attachment. ξF = NC(Cc1ccccc1)C(=O)O; Cbz = O=C(OCc1ccccc1)*

One may read the EC50 as the concentration needed to bring the measured effect to its halfway point. Read a low EC50 as greater potency. In turn, `Cc1[nH]c2ccccc2c1SCC(=O)N1CCN(c2ccccc2)CC1` [2-[(2-methyl-1H-indol-3-yl)thio]-1-(4-phenyl-1-piperazinyl)ethanone] came in with an EC50 of 4.24 µM. That is a single-digit micromolar value.
In the case of `Cc1ccc(/C=C2/Sc3ccccc3N(CC(=O)NCCCOC(C)C)C2=O)cc1` [2-[(2E)-2-[(4-methylphenyl)methylidene]-3-oxidanylidene-1,4-benzothiazin-4-yl]-N-(3-propan-2-yloxypropyl)ethanamide], the EC50 came to 964 µM.
Same read-out and setting: for `COc1ccc(S(=O)(=O)N(CCc2ccccc2)CC(=O)O)cc1Cl` [2-[(3-chloranyl-4-methoxy-phenyl)sulfonyl-(2-phenylethyl)amino]ethanoic acid] the value was 7.63 µM.
Regarding `Cc1ccc(NC(=O)c2ccccc2NS(=O)(=O)c2ccc(Cl)s2)cc1` [2-[(5-chloranylthiophen-2-yl)sulfonylamino]-N-(4-methylphenyl)benzamide], a half-maximal response (EC50) required 1.17 µM.
`CCOC(=O)CNC(=O)C(Cc1ccccc1)NC(=O)OCc1ccccc1` (stereo unspecified) [2-[[1-oxo-3-phenyl-2-(phenylmethoxycarbonylamino)propyl]amino]acetic acid ethyl ester] (Cbz-[ξF]-Gly-OEt): a half-maximal response (EC50) required 3.01 µM.
Take `COc1ccc(-n2cnnc2SCC(=O)Nc2cc(S(=O)(=O)N3CCCCC3)ccc2C)cc1` [2-[[4-(4-methoxyphenyl)-1,2,4-triazol-3-yl]sulfanyl]-N-(2-methyl-5-piperidin-1-ylsulfonyl-phenyl)ethanamide]: the EC50 stood at 15.1 µM.
The compound `Cc1ccccc1-c1nc(C[S+]([O-])CC(=O)NCc2ccccc2)c(C)o1` (stereo unspecified) [2-[[5-methyl-2-(2-methylphenyl)-1,3-oxazol-4-yl]methylsulfinyl]-N-(phenylmethyl)ethanamide] displayed an EC50 of 7.15 µM.
Take `Cc1ccccc1-c1nc(CS(=O)(=O)CC(=O)NCc2ccccc2)c(C)o1` [2-[[5-methyl-2-(2-methylphenyl)-1,3-oxazol-4-yl]methylsulfonyl]-N-(phenylmethyl)ethanamide]: a half-maximal response (EC50) required 11.8 µM. Against the preceding compound, the EC50 is about 1.7-fold higher.
Under setting [1], `O=C(/C=C/c1ccccc1)Nc1scc(-c2ccccc2)c1C(=O)O` [2-[[(E)-1-oxo-3-phenylprop-2-enyl]amino]-4-phenyl-3-thiophenecarboxylic acid] gave an EC50 of 0.134 µM. This counts as sub-micromolar.
Consider `Cc1ccc(C(=O)CC=Nc2ccccc2C(N)=O)cc1` [2-[[(E)-3-(4-methylphenyl)-3-oxidanylidene-prop-1-enyl]amino]benzamide], for which the EC50 was 3.36 µM.
Still for that read-out and setting: the same measure for `COc1ccc(-c2cc(CNC(=O)CN(C)Cc3ccccc3)on2)cc1` [2-[benzyl(methyl)amino]-N-[[3-(4-methoxyphenyl)-1,2-oxazol-5-yl]methyl]acetamide]: 5.23 µM.
In turn, `CN(C)S(=O)(=O)c1cccc(NC(=O)c2cc3c(cc2Cl)N2CCCCC=C2NS3(=O)=O)c1` [2-chloranyl-N-[3-(dimethylsulfamoyl)phenyl]-5,5-bis(oxidanylidene)-8,9,10,11-tetrahydro-7H-azepino[2,1-c][1,2,4]benzothiadiazine-3-carboxamide] had an EC50 of 281 µM.
With `Cc1ccc(-c2csc(NC(=O)CCNC(=O)c3ccccc3Cl)n2)cc1` [2-chloranyl-N-[3-[[4-(4-methylphenyl)-1,3-thiazol-2-yl]amino]-3-oxidanylidene-propyl]benzamide], the EC50 worked out at 2.49 µM.
The compound `CC(C)c1ccc(C=NNC(=O)c2ccccc2Cl)cc1` [2-chloranyl-N-[(4-propan-2-ylphenyl)methylideneamino]benzamide] gave an EC50 under setting [1] of 45.8 µM. This counts as double-digit micromolar.
With `O=C(NC(=S)Nc1nc(-c2cccc([N+](=O)[O-])c2)cs1)c1ccccc1Cl` [2-chloranyl-N-[[4-(3-nitrophenyl)-1,3-thiazol-2-yl]carbamothioyl]benzamide], the EC50 came out at 9.6 µM.
Under setting [1], `O=C(NC(=S)Nc1ccc(-c2nc3ncccc3o2)cc1)c1ccccc1F` [2-fluoranyl-N-[[4-([1,3]oxazolo[4,5-b]pyridin-2-yl)phenyl]carbamothioyl]benzamide] registered an EC50 of 1.8 µM. That is a single-digit micromolar value.
Regarding `COc1ccccc1C(=O)NC1CCN(C(=S)NCCc2ccccc2)CC1` [2-methoxy-N-[1-(2-phenylethylcarbamothioyl)piperidin-4-yl]benzamide], a half-maximal effect (EC50) was put at 6.66 µM. This lies in the single-digit micromolar range.
The compound `Cc1cc([N+](=O)[O-])ccc1NCc1ccccc1` [2-methyl-4-nitro-N-(phenylmethyl)aniline] registered an EC50 of 1.74 µM.
In the case of `O=C(NN=Cc1ccccn1)c1ccccc1O` [2-oxidanyl-N-(pyridin-2-ylmethylideneamino)benzamide], a half-maximal effect (EC50) was put at 29.2 µM.
With `O=C(C1CCN(S(=O)(=O)c2cccc3nsnc23)CC1)N1CCc2ccccc2C1` [2-{[1-(2,1,3-benzothiadiazol-4-ylsulfonyl)piperidin-4-yl]carbonyl}-1,2,3,4-tetrahydroisoquinoline], the EC50 came out at 69.7 µM.
For the compound `Cc1noc(/C=C/c2ccco2)c1S(=O)(=O)N1CCC(C(=O)N2CCc3ccccc3C2)CC1` [2-{[1-({5-[(E)-2-(2-furyl)vinyl]-3-methylisoxazol-4-yl}sulfonyl)piperidin-4-yl]carbonyl}-1,2,3,4-tetrahydroisoquinoline], a half-maximal effect (EC50) was put at 4.09 µM. This EC50 lies about 17-fold lower than the previous one.
The same measure, in the same setting: the same measure for `COc1cc(OC)c(C2=NOC(C(=O)N3CCc4ccccc4C3)C2)cc1Cl` (stereo unspecified) [2-{[3-(5-chloro-2,4-dimethoxyphenyl)-4,5-dihydro-5-isoxazolyl]carbonyl}-1,2,3,4-tetrahydroisoquinoline]: 6.59 µM; for `CC12CC3(C)CC(C)(C1)CC(C(=O)NC(=S)N1CCCC1)(C2)C3` [3,5,7-trimethyl-N-pyrrolidin-1-ylcarbothioyl-adamantane-1-carboxamide]: 1.14 µM; for `CCCCCC(=O)Cc1cc(O)cc2c1C(=O)Oc1cc(O)c(C(=O)O)c(CCCCC)c1O2` [3,8-Dihydroxy-11-oxo-1-(2-oxo-heptyl)-6-pentyl-11H-dibenzo[b,e][1,4]dioxepine-7-carboxylic acid]: 4.02 µM.
For the compound `Cc1cc(C(=O)COC(=O)CCc2nc3ccccc3s2)c(C)n1C` [3-(1,3-benzothiazol-2-yl)propanoic acid [2-oxo-2-(1,2,5-trimethyl-3-pyrrolyl)ethyl] ester], a half-maximal response (EC50) required 97.3 µM.
`Cc1ccc(/C=C2\SC(=S)N(c3c(C)n(C)n(-c4ccccc4)c3=O)C2=O)cc1` [3-(1,5-dimethyl-3-oxo-2-phenyl-2,3-dihydro-1H-pyrazol-4-yl)-5-(4-methylbenzylidene)-2-thioxo-1,3-thiazolidin-4-one] showed an EC50 of 0.13 µM. Against the preceding compound, the EC50 is about 750-fold lower.
`Cc1onc(-c2ccccc2Cl)c1C(=O)NC(=S)Nc1ccc(C(C)C)cc1` [3-(2-chlorophenyl)-5-methyl-N-(p-cumenylthiocarbamoyl)isoxazole-4-carboxamide] registered an EC50 of 0.271 µM.
Turning to `O=C(CCSCCc1ccccn1)Nc1ccc(Cc2ccncc2)cc1` [3-(2-pyridin-2-ylethylsulfanyl)-N-[4-(pyridin-4-ylmethyl)phenyl]propanamide], the EC50 is 9.8 µM. This EC50 is about 36-fold higher than that of the compound before.
Take `S=c1[nH]nc(-c2cccc(Cl)c2)n1N=Cc1ccco1` [3-(3-chlorophenyl)-4-(furan-2-ylmethylideneamino)-1H-1,2,4-triazole-5-thione]: the concentration giving a half-maximal response (EC50) under setting [1] was determined as 60.1 µM.
As for `O=S(=O)(NC1CCCC1)c1cccc(S(=O)(=O)N2CCC(n3nnc4ccccc43)CC2)c1` [3-(4-Benzotriazol-1-yl-piperidine-1-sulfonyl)-N-cyclopentyl-benzenesulfonamide], the EC50 turned out to be 4.9 µM.
Compound `O=S1(=O)N=C(N2CCN(Cc3ccccc3)CC2)c2ccccc21` [3-(4-Benzyl-piperazin-1-yl)-benzo[d]isothiazole 1,1-dioxide] yielded an EC50 of 6.74 µM.
In the case of `O=C(Cn1c(-c2ccc(Cl)cc2)noc1=O)N1CCN(c2ccccc2F)CC1` [3-(4-Chloro-phenyl)-4-{2-[4-(2-fluoro-phenyl)-piperazin-1-yl]-2-oxo-ethyl}-4H-[1,2,4]oxadiazol-5-one], it took 228 µM to reach a half-maximal effect (EC50). Against the preceding compound, the EC50 is about 34-fold higher.
Same read-out and setting: the same measure for `CCN(CC)c1ccc2c(C)c(-c3ccc(N)cc3)c(=O)oc2c1` [3-(4-aminophenyl)-7-(diethylamino)-4-methyl-1-benzopyran-2-one]: 0.986 µM; for `CCOc1ccc(C(CC(=O)O)NC(=O)C(Sc2ccccc2)c2ccccc2)cc1` (stereo unspecified) [3-(4-ethoxyphenyl)-3-[(2-phenyl-2-phenylsulfanyl-ethanoyl)amino]propanoic acid]: 4060 µM.
On to `CS/C(=N\Cc1ccc(F)cc1)NS(=O)(=O)c1cccs1` [3-(4-fluorobenzyl)-2-methyl-1-(2-thienylsulfonyl)isothiourea], for which the EC50 stood at 0.702 µM.
Still for that read-out and setting: for `O=C(Cn1cnc2c(nnn2Cc2ccc(F)cc2)c1=O)N1CCN(c2ccccc2)CC1` [3-(4-fluorobenzyl)-6-[2-keto-2-(4-phenylpiperazino)ethyl]triazolo[4,5-d]pyrimidin-7-one] the value was 20 µM.
